Laboratory results as given in US10017523B2, “NAMPT inhibitors and methods” (Genzyme Corporation, priority 2014, dated 2018).

How the values were obtained:
Recombinant NAMPT enzyme = target: T1, Recombinant NAMPT enzyme (Homo sapiens, UniProt P43490); test: Inhibition of NAMPT enzymatic activity; assay type: biochemical; conditions: 6 hours at 37° C., NMN product detected
T1 construct: purchased MBL
Procedure: Recombinant NAMPT enzyme (MBL) was briefly pre-incubated in the absence or presence of inhibitor followed by addition of nicotinamide. Enzymatic reaction was allowed to proceed for 6 hours at 37° C. Reaction was terminated and NMN reaction product detected using the method as described in: Zhang R Y, Qin Y, Lv X Q, Wang P, Xu T Y, Zhang L, Miao C Y., Anal. Biochem. 2011 May 1; 412(1):18-25.
(§1) The 50% inhibitory concentration (IC50) is the concentration at which 50% of the maximal activity was inhibited.

primary human B cells = test: Anti-proliferative activity on B cells (anti-IgM stimulated, CellTiterGlo); assay type: cell-based; conditions: B-cell, 72 h, anti-IgM 10 ug/ml
Procedure: (§2) Fresh primary human B cells obtained from Analytical Biological Services (Wilmington, Del.) were diluted to 1×10^^6 cells per ml in AIM-V medium (Invitrogen), and stimulated with anti-IgM (10 ug/ml) (KPL) in the absence or presence of inhibitor for 72 hours at 37° C./5% CO2 prior to viability determination using CellTiterGlo (Promega) per manufacturer's instruction.
as §1

primary human T cells = test: Anti-proliferative activity on T cells (CD3/CD28 stimulated, CellTiterGlo); assay type: cell-based; conditions: T-cell, 72 h, CD3/CD28 beads
Procedure: as §2, with “human T” for “human B”, “with CD3/CD28 beads (Invitrogen)” for “with anti-IgM (10 ug/ml) (KPL)”
as §1

[1] = tested on: acute T-cell leukemia (JURKAT); test: Anti-proliferative activity on JURKAT cell line; assay type: cell-based; conditions: Homo sapiens, 72 h, CellTiterGlo
Procedure: (§3) Leukemia/Lymphoma cell lines (ATCC) were diluted in vendor-recommended media and incubated in the absence or presence of inhibitor for 72 hours at 37° C./5% CO2 prior to viability determination using CellTiterGlo (Promega) per manufacturer's instruction. The human cell lines studied include acute T-cell leukemia (JURKAT), chronic myelogenous leukemia (K562), and B-cell acute lymphocytic leukemia (NALM6 and SUP-B15).

[2] = tested on: chronic myelogenous leukemia (K562); test: Anti-proliferative activity on K562 cell line; assay type: cell-based; conditions: Homo sapiens, K562, 72 h, CellTiterGlo
Procedure: as §3

[3] = tested on: B-cell acute lymphocytic leukemia (NALM6); test: Anti-proliferative activity on NALM6 cell line; assay type: cell-based; conditions: Homo sapiens, NALM-6, 72 h, CellTiterGlo
Procedure: as §3

[4] = tested on: B-cell acute lymphocytic leukemia (SUP-B15); test: Anti-proliferative activity on SUP-B15 cell line; assay type: cell-based; conditions: Homo sapiens, SUP-B15, 72 h, CellTiterGlo
Procedure: as §3

T1 sequence (P43490 whole entry): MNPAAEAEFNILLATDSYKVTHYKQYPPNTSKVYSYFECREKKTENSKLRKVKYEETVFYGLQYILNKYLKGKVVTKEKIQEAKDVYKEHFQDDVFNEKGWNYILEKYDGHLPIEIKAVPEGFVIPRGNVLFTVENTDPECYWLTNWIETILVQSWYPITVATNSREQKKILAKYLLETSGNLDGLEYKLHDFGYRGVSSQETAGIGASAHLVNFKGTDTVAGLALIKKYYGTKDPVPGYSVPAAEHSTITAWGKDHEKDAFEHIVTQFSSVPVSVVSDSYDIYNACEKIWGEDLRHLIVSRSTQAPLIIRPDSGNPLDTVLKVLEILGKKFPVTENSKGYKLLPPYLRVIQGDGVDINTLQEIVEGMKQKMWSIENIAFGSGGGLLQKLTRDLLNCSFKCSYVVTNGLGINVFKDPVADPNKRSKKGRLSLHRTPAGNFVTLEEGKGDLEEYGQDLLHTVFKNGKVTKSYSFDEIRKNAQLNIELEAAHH

SMILES | IC50 (Recombinant NAMPT enzyme) [nM] | IC50 (primary human B cells) [nM] | IC50 (primary human T cells) [nM] | IC50 [1] [nM] | IC50 [2] [nM] | IC50 [3] [nM] | IC50 [4] [nM]
CCCCONC(=O)c1ccc(-c2ccc3c(c2)C(=O)CC2(CCN(C(C)C)CC2)O3)nc1 [N-butoxy-6-(1′-isopropyl-4-oxospiro[chroman-2,4′-piperidin]-6-yl)nicotinamide] | 1.4 | 45 | 7370 | 23.3 | 282 | 15.6 | 3.02
CCc1cc(CNC(=O)c2ccc(-c3ccc4c(c3)C(=O)CC3(CCN(C(C)C)CC3)O4)cc2)on1 [N-((3-ethylisoxazol-5-yl)methyl)-4-(1′-isopropyl-4-oxospiro[chroman-2,4′-piperidin]-6-yl)benzamide] | 1 | 21.3 | 1720 | 12.2 | 44.7 | 7.42 | 2.3
Cc1cc(CNC(=O)c2ccc(-c3ccc4c(c3)C(=O)NC3(CCN(C(C)C)CC3)O4)nc2)on1 [6-(1′-isopropyl-4-oxo-3,4-dihydrospiro[benzo[e][1,3]oxazine-2,4′-piperidin]-6-yl)-N-((3-methylisoxazol-5-yl)methyl)nicotinamide] | 3 | 29.2 | 14600 | 24.8 | 876 | 17.1 | 3.19
CCN1CCC2(CC1)CC(=O)c1cc(-c3ccc(C(=O)NCc4cncs4)cn3)ccc1O2 [6-(1′-ethyl-4-oxospiro[chroman-2,4′-piperidin]-6-yl)-N-(thiazol-5-ylmethyl)nicotinamide] | 271 | 50.9 | 3360 | 43.6 | 180 | 21.6 | 5.15
CC(C)N1CCC2(CC1)Oc1ccc(-c3ccc(C(=O)CCc4cncs4)cc3)cc1C(=O)N2C [1′-isopropyl-3-methyl-6-(4-(3-(thiazol-5-yl)propanoyl)phenyl)spiro[benzo[e][1,3]oxazine-2,4′-piperidin]-4(3H)-one] | 166 | 40.8 | 3190 | 34.7 | 112 | 18.6 | 2.85
COCCCN1CCC2(C=Cc3cc(-c4ccc(C(=O)NCc5cncs5)cn4)ccc3O2)CC1 [6-(1′-(3-methoxypropyl)spiro[chromene-2,4′-piperidin]-6-yl)-N-(thiazol-5-ylmethyl)nicotinamide] | 56.4 | 45.5 | 5790 |  | 85.8 | 13.9 | 1.7
CCCN1CCC2(CC1)CC(=O)c1cc(-c3ccc(C(=O)NCc4cncc(F)c4)cc3)ccc1O2 [N-((5-fluoropyridin-3-yl)methyl)-4-(4-oxo-1′-propylspiro[chroman-2,4′-piperidin]-6-yl)benzamide] | 3 | 7.4 | 1970 | 7.07 | 18.7 | 3.15 | 0.556
CC(C)N1CCC2(CC1)Oc1ccc(-c3ccc(C(=O)NCc4cnn(C)c4)cn3)cc1C(=O)N2C [6-(1′-isopropyl-3-methyl-4-oxo-3,4-dihydrospiro[benzo[e][1,3]oxazine-2,4′-piperidin]-6-yl)-N-((1-methyl-1H-pyrazol-4-yl)methyl)nicotinamide] | 15 | 97.7 | 6110 | 181 | 629 | 122 | 20.9
CC(C)N1CCC2(CC1)Oc1ccc(-c3ccc(C(=O)NCc4cncs4)cn3)cc1C(=O)N2C [6-(1′-isopropyl-3-methyl-4-oxo-3,4 dihydrospiro[benzo[e][1,3]oxazine-2,4′-piperidin]-6-yl)-N-(thiazol-5-ylmethyl)nicotinamide] | 107 | 25.4 | 1550 | 33 | 75.7 | 17.6 | 2.14
COCCCN1CCC2(CC1)CC(=O)c1cc(-c3ccc(C(=O)NCc4cncs4)cn3)ccc1O2 [6-(1′-(3-methoxypropyl)-4-oxospiro[chroman-2,4′-piperidin]-6-yl)-N-(thiazol-5-ylmethyl)nicotinamide] | 141 | 43.8 | 3290 | 19.6 | 54.4 | 9.38 | 1.83
CCCN1CCC2(CC1)CC(=O)c1cc(-c3ccc(C(=O)NCc4cncs4)cn3)ccc1O2 [6-(4-oxo-1′-propylspiro[chroman-2,4′-piperidin]-6-yl)-N-(thiazol-5-ylmethyl)nicotinamide] | 66.7 | 15.2 | 1080 | 16.3 | 35.7 | 11.9 | 1.89
Cc1cc(CNC(=O)c2ccc(-c3ccc4c(c3)C(=O)CC3(CCN(C(C)C)CC3)O4)cc2)no1 [4-(1′-isopropyl-4-oxospiro[chroman-2,4′-piperidin]-6-yl)-N-((5-methylisoxazol-3-yl)methyl)benzamide] | 1 | 11.3 | 3240 | 10.7 | 63.6 | 2.69 | 1.17
COCCCCN1CCC2(CC1)CC(=O)c1cc(-c3ccc(C(=O)NCc4cncc(F)c4)cn3)ccc1O2 [N-((5-fluoropyridin-3-yl)methyl)-6-(1′-(4-methoxybutyl)-4-oxospiro[chroman-2,4′-piperidin]-6-yl)nicotinamide] | 4.2 | 10.9 | 5450 | 12.1 | 29.4 | 4.83 | 0.847
CCCN1CCC2(CC1)CC(=O)c1cc(-c3ccc(C(=O)NCc4cc(C)no4)cn3)ccc1O2 [N-((3-methylisoxazol-5-yl)methyl)-6-(4-oxo-1′-propylspiro[chroman-2,4′-piperidin]-6-yl)nicotinamide] | 1 | 5.9 | 731 | 3.54 | 19.4 | 2.25 | 0.706
Cc1ccc(CNC(=O)c2ccc(-c3ccc4c(c3)C(=O)CC3(CCN(C(C)C)CC3)O4)c(F)c2)cn1 [3-fluoro-4-(1′-isopropyl-4-oxospiro[chroman-2,4′-piperidin]-6-yl)-N-((6-methylpyridin-3-yl)methyl)benzamide] | 2 | 53.9 | 8510 | 21.3 | 1730 | 10.7 | 2.22
CC(C)N1CCC2(CC1)Oc1ccc(-c3ccc(C(=O)NCc4cncc(F)c4)cc3)cc1C(=O)N2C [N-((5-fluoropyridin-3-yl)methyl)-4-(1′-isopropyl-3-methyl-4-oxo-3,4-dihydrospiro[benzo[e][1,3]oxazine-2,4′-piperidin]-6-yl)benzamide] | 3.5 | 6 | 1000 | 7.04 | 28.3 | 3.56 | 0.606
CC(C)N1CCC2(CC1)CC(=O)c1cc(-c3ccc(C(=O)NCc4cnn(C)c4)cn3)ccc1O2 [6-(1′-isopropyl-4-oxospiro[chroman-2,4′-piperidin]-6-yl)-N-((1-methyl-1H-pyrazol-4-yl)methyl)nicotinamide] | 14 | 59.8 | 5590 | 209 | 304 | 102 | 14.1
